Values of other authors, collected in patent US20120021445A1, “Pluripotent Stem Cells for Drug Induced Myopathy and Malignant Hyperthermia” (priority 2010, published 2012).

Assays:
[1] = rhabdomyolysis defined as acute elevation of CK (>15 000 ULN); unit not given

Row | Compound | reported incidence of rhabdomyolysis [1] | lack of efficacy in malignant hyperthermia patients
1 | CC(C)c1c(C(=O)Nc2ccccc2)c(-c2ccccc2)c(-c2ccc(F)cc2)n1CC[C@@H](O)C[C@@H](O)CC(=O)O [atrovarstatin] | 0.04 | –
2 | O=C1CN(/N=C/c2ccc(-c3ccc([N+](=O)[O-])cc3)o2)C(O)=N1 [dantrolene] | – | up to 5%
3 | CC[C@H](C)C(=O)O[C@H]1C[C@@H](C)C=C2C=C[C@H](C)[C@H](CC[C@@H]3C[C@@H](O)CC(=O)O3)[C@H]21 [lovostatin] | 0.19 | –
4 | CC[C@H](C)C(=O)O[C@H]1C[C@H](O)C=C2C=C[C@H](C)[C@H](CC[C@@H](O)C[C@@H](O)CC(=O)O)[C@H]21 [pravastatin] | 0.04 | –
